Non-standard residues stand in square brackets, D forms with d. pGlu = O=C1CC[C@@H](C(=O)O)N1

What all share (type): cell-based, human
Experiment [1] relates to gluten-reactive T cells. The experiment can be described thus: 96-well plate whole blood cytokine release, IFNγ by MAGPIX multiplex bead assay. The note with it: for Percent of maximal response to individual gluten peptides, IFNg: after oral gluten challenge; for IFNγ WB MAGPIX % max Mean: n = 8, blood after oral gluten challenge, individual peptides 5 μM (Peptide 2* of P14, Pepscan: 10 μg/mL (5.45 μM)).

The subject of experiment [2] is gluten-reactive T cells. The experiment is described as follows: 96-well plate whole blood cytokine release, IP-10 by MAGPIX multiplex bead assay. The note with it: for Percent of maximal response to individual gluten peptides, IP-10: after oral gluten challenge; for IP-10 WB MAGPIX % max Mean: n = 10, blood after oral gluten challenge, individual peptides 5 μM (Peptide 2* of P14, Pepscan: 10 μg/mL (5.45 μM)).

In experiment [3] the test system is gluten-reactive T cells. The experiment can be described thus: Cytokine release assays taken together (IFNγ ELISpot, whole blood IFNγ and IP-10, in-tube IFNγ ELISA). The note with it: for cytokine release / immunogenicity of individual peptide: HLA-DQ2.5+ celiac disease subjects after gluten challenge; for activity relative to Peptide 14 in the cytokine release assays: blood collected after oral gluten challenge. In a few lines: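 Whole blood with peptides (P3 0.05-50 μg/mL; P13/P14 0.025-25 μM; […]), 24 h, 37 °C; plasma IFNγ/IP-10 by multiplex beads. Tube assay: 1 mL blood with P3 or CEF, 24 h, plasma IFNγ ELISA; elevated if >7.2 pg/mL above medium tube and SI >1.25. ELISpot overnight on fresh PBMC.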
Background: In an ELISA, binding on a coated surface is turned into a signal by an enzyme label.

On to “(pE)QPFPQPEQPFSQQ-amide ([pGlu]QPFPQPEQPFSQQ-NH2; SMILES NC(=O)CC[C@H](NC(=O)[C@H](CCC(N)=O)NC(=O)[C@H](CO)NC(=O)[C@H](Cc1ccccc1)NC(=O)[C@@H]1CCCN1C(=O)[C@H](CCC(N)=O)NC(=O)[C@H](CCC(=O)O)NC(=O)[C@@H]1CCCN1C(=O)[C@H](CCC(N)=O)NC(=O)[C@@H]1CCCN1C(=O)[C@H](Cc1ccccc1)NC(=O)[C@@H]1CCCN1C(=O)[C@H](CCC(N)=O)NC(=O)[C@@H]1CCC(=O)N1)C(N)=O) [Peptide 7]”, for which the “Percent of maximal response to individual gluten peptides, IFNg” value (shortened to “Percent of maximal response … IFNg”) is listed as 60 % of max in experiment [1] (Subject 2, Max. 116 pg/mL); 2 % of max in experiment [1] (Subject 3, Max. 799 pg/mL); 8 % of max in experiment [1] (Subject 4, Max. 136 pg/mL); 0 % of max in experiment [1] (Subject 6, Max. 72 pg/mL); 0 % of max in experiment [1] (Subject 7, Max. 17 pg/mL); 0 % of max in experiment [1] (Subject 8, Max. 47 pg/mL). For the same substance, the “Percent of maximal response … IFNg” value in experiment [1] (Subject 9, Max. 67 pg/mL) is recorded as 0 % of max; in experiment [1] (Subject 10, Max. 229 pg/mL) it was 1 % of max. In experiment [1], the “IFNγ WB MAGPIX % max Mean” value is 9 % max. Besides, the “Percent of maximal response to individual gluten peptides, IP-10” value (“Percent of maximal response … IP-10” below) in experiment [2] (Subject 1, Max. 2331 pg/mL) is reported as 0 % of max; in experiment [2] (Subject 2, Max. 3646 pg/mL), 7 % of max; in experiment [2] (Subject 3, Max. 9492 pg/mL), 60 % of max; in experiment [2] (Subject 4, Max. 9463 pg/mL) it was 20 % of max; in experiment [2] (Subject 5, Max. 9336 pg/mL), 12 % of max; in experiment [2] (Subject 6, Max. 5863 pg/mL), 0 % of max. In addition, the “Percent of maximal response … IP-10” value is reported as 0 % of max in experiment [2] (Subject 7, Max. 2330 pg/mL); 3 % of max in experiment [2] (Subject 8, Max. 4019 pg/mL); 17 % of max in experiment [2] (Subject 9, Max. 8349 pg/mL); 3 % of max in experiment [2] (Subject 10, Max. 8922 pg/mL). Further, the “IP-10 WB MAGPIX % max Mean” value in experiment [2] was 12 (12) % max. Besides, the “cytokine release / immunogenicity of individual peptide” value in experiment [3] was “weak or absent”.

In the case of “(pE)QPFPQPEQPIPVQPEQS-amide ([pGlu]QPFPQPEQPIPVQPEQS-NH2; SMILES CC[C@H](C)[C@H](NC(=O)[C@@H]1CCCN1C(=O)[C@H](CCC(N)=O)NC(=O)[C@H](CCC(=O)O)NC(=O)[C@@H]1CCCN1C(=O)[C@H](CCC(N)=O)NC(=O)[C@@H]1CCCN1C(=O)[C@H](Cc1ccccc1)NC(=O)[C@@H]1CCCN1C(=O)[C@H](CCC(N)=O)NC(=O)[C@@H]1CCC(=O)N1)C(=O)N1CCC[C@H]1C(=O)N[C@H](C(=O)N[C@@H](CCC(N)=O)C(=O)N1CCC[C@H]1C(=O)N[C@@H](CCC(=O)O)C(=O)N[C@@H](CCC(N)=O)C(=O)N[C@@H](CO)C(N)=O)C(C)C) [Peptide 4]”, the “Percent of maximal response … IFNg” value in experiment [1] (Subject 2, Max. 116 pg/mL) is listed as 33 % of max; in experiment [1] (Subject 3, Max. 799 pg/mL), 13 % of max; in experiment [1] (Subject 4, Max. 136 pg/mL) it was 24 % of max; in experiment [1] (Subject 6, Max. 72 pg/mL) it was 1 % of max; in experiment [1] (Subject 7, Max. 17 pg/mL), 1 % of max; in experiment [1] (Subject 8, Max. 47 pg/mL) it was 9 % of max. Moreover, the “Percent of maximal response … IFNg” value in experiment [1] (Subject 9, Max. 67 pg/mL) is 29 % of max; in experiment [1] (Subject 10, Max. 229 pg/mL) it was 11 % of max. In addition, in experiment [1], the “IFNγ WB MAGPIX % max Mean” value is 15 % max. Also, the “Percent of maximal response … IP-10” value in experiment [2] (Subject 1, Max. 2331 pg/mL) is 18 % of max; in experiment [2] (Subject 2, Max. 3646 pg/mL) it was 19 % of max; in experiment [2] (Subject 3, Max. 9492 pg/mL), ≥ 100 % of max; in experiment [2] (Subject 4, Max. 9463 pg/mL), ≥ 100 % of max; in experiment [2] (Subject 5, Max. 9336 pg/mL), 51 % of max; in experiment [2] (Subject 6, Max. 5863 pg/mL), 2 % of max. Moreover, the “Percent of maximal response … IP-10” value in experiment [2] (Subject 7, Max. 2330 pg/mL) was 3 % of max; in experiment [2] (Subject 8, Max. 4019 pg/mL) it was 7 % of max; in experiment [2] (Subject 9, Max. 8349 pg/mL), 48 % of max; in experiment [2] (Subject 10, Max. 8922 pg/mL), 30 % of max. In addition, in experiment [2], the “IP-10 WB MAGPIX % max Mean” value stood at 38 % max. For the same substance, the “activity relative to Peptide 14 in the cytokine release assays” value in experiment [3] was “from one-half to one-eighth as active as Peptide 14”.

“(pE)QPFPQPEQPTPIQPEQP-amide ([pGlu]QPFPQPEQPTPIQPEQP-NH2; SMILES CC[C@H](C)[C@H](NC(=O)[C@@H]1CCCN1C(=O)[C@@H](NC(=O)[C@@H]1CCCN1C(=O)[C@H](CCC(N)=O)NC(=O)[C@H](CCC(=O)O)NC(=O)[C@@H]1CCCN1C(=O)[C@H](CCC(N)=O)NC(=O)[C@@H]1CCCN1C(=O)[C@H](Cc1ccccc1)NC(=O)[C@@H]1CCCN1C(=O)[C@H](CCC(N)=O)NC(=O)[C@@H]1CCC(=O)N1)[C@@H](C)O)C(=O)N[C@@H](CCC(N)=O)C(=O)N1CCC[C@H]1C(=O)N[C@@H](CCC(=O)O)C(=O)N[C@@H](CCC(N)=O)C(=O)N1CCC[C@H]1C(N)=O) [Peptide 5]”: the “Percent of maximal response … IFNg” value in experiment [1] (Subject 2, Max. 116 pg/mL) is on record as 39 % of max; in experiment [1] (Subject 3, Max. 799 pg/mL) it was 5 % of max; in experiment [1] (Subject 4, Max. 136 pg/mL) it was 13 % of max; in experiment [1] (Subject 6, Max. 72 pg/mL) it was 1 % of max; in experiment [1] (Subject 7, Max. 17 pg/mL), 6 % of max; in experiment [1] (Subject 8, Max. 47 pg/mL) it was 0 % of max. For the same substance, the “Percent of maximal response … IFNg” value is reported as 0 % of max in experiment [1] (Subject 9, Max. 67 pg/mL) and 27 % of max in experiment [1] (Subject 10, Max. 229 pg/mL). For the same substance, in experiment [1], the “IFNγ WB MAGPIX % max Mean” value is listed as 11 (11) % max. The “Percent of maximal response … IP-10” value is reported as 0 % of max in experiment [2] (Subject 1, Max. 2331 pg/mL); 13 % of max in experiment [2] (Subject 2, Max. 3646 pg/mL); ≥ 100 % of max in experiment [2] (Subject 3, Max. 9492 pg/mL); 46 % of max in experiment [2] (Subject 4, Max. 9463 pg/mL); 13 % of max in experiment [2] (Subject 5, Max. 9336 pg/mL); 1 % of max in experiment [2] (Subject 6, Max. 5863 pg/mL). For the same substance, the “Percent of maximal response … IP-10” value in experiment [2] (Subject 7, Max. 2330 pg/mL) was 2 % of max; in experiment [2] (Subject 8, Max. 4019 pg/mL) it was 4 % of max; in experiment [2] (Subject 9, Max. 8349 pg/mL), 10 % of max; in experiment [2] (Subject 10, Max. 8922 pg/mL) it was 60 % of max. The “IP-10 WB MAGPIX % max Mean” value in experiment [2] is 25 % max. Besides, the “activity relative to Peptide 14 in the cytokine release assays” value in experiment [3] is given as “from one-half to one-eighth as active as Peptide 14”.

As to “(pE)QPPFSEQEQPVLPQ-amide (N-terminal pyroglutamate; C-terminal amide) [Peptide 13]”, the “Percent of maximal response … IFNg” value in experiment [1] (Subject 2, Max. 116 pg/mL) was 47 % of max; in experiment [1] (Subject 3, Max. 799 pg/mL), 3 % of max; in experiment [1] (Subject 4, Max. 136 pg/mL), 0 % of max; in experiment [1] (Subject 6, Max. 72 pg/mL), 5 % of max; in experiment [1] (Subject 7, Max. 17 pg/mL) it was 1 % of max; in experiment [1] (Subject 8, Max. 47 pg/mL) it was 0 % of max. Further, the “Percent of maximal response … IFNg” value in experiment [1] (Subject 9, Max. 67 pg/mL) is reported as 0 % of max; in experiment [1] (Subject 10, Max. 229 pg/mL), 0 % of max. Further, the “IFNγ WB MAGPIX % max Mean” value in experiment [1] is on record as 7 % max. For the same substance, the “Percent of maximal response … IP-10” value is given as 0 % of max in experiment [2] (Subject 1, Max. 2331 pg/mL); 16 % of max in experiment [2] (Subject 2, Max. 3646 pg/mL); 70 % of max in experiment [2] (Subject 3, Max. 9492 pg/mL); 0 % of max in experiment [2] (Subject 4, Max. 9463 pg/mL); 6 % of max in experiment [2] (Subject 5, Max. 9336 pg/mL); 5 % of max in experiment [2] (Subject 6, Max. 5863 pg/mL). In addition, the “Percent of maximal response … IP-10” value in experiment [2] (Subject 7, Max. 2330 pg/mL) is recorded as 0 % of max; in experiment [2] (Subject 8, Max. 4019 pg/mL), 0 % of max; in experiment [2] (Subject 9, Max. 8349 pg/mL), 0 % of max; in experiment [2] (Subject 10, Max. 8922 pg/mL), 0 % of max. In addition, in experiment [2], the “IP-10 WB MAGPIX % max Mean” value came to 10 % max. The “cytokine release / immunogenicity of individual peptide” value in experiment [3] was “weak or not distinguishable from medium alone”.

Values taken from US20170045513A1, “METHODS OF DIAGNOSING CELIAC DISEASE USING IP-10” (ImmusanT, Inc., priority 2014, published 2017).
